US4005093A, “2-Naphthyl-lower-alkylamines” (Sterling Drug Inc., priority 1975, dated 1977)
Counter-ions that a name gives are not always drawn.

Tests used:
[1] = system: adjuvant-induced arthritis; assay: modification of the inhibition of adjuvant-induced arthritis test (adjuvant arthritis, AA); format: in vivo; conditions: oral
Description: (§1) Anti-inflammatory activity was determined using (1) the inhibition of carrageenin-induced foot edema test essentially described by Van Arman et al., J. Pharmacol. Exptl. Therap. 150, 328 (1965) as modified by Winter et al., Proc. Soc. Exp. Biol. and Med. 111, 544 (1962) and (2) a modification of the inhibition of adjuvant-induced arthritis test described by Pierson, J. Chronic Diseases 16, 863 (1963) and Glenn et al., Am. J. Vet. Res. 26, 1180 (1965). […] Data so-obtained, given in terms of percent inhibition at a dose expressed in terms of […] (μM)/kg., are given below. All data were obtained on oral administration.

[2] = system: carrageenin-induced foot edema; assay: inhibition of carrageenin-induced foot edema test (carrageenin edema, CE); format: in vivo; conditions: oral
Description: as §1

[3] = dose 0.01 (millimoles (μM)/kg [sic])
[4] = dose 0.04 millimoles (μM)/kg [sic], hydrochloride
[5] = dose 0.16 millimoles (μM)/kg [sic], hydrochloride
[6] = dose 0.08 (millimoles (μM)/kg [sic]), hydrochloride
[7] = dose 0.324 millimoles (μM)/kg [sic], hydrochloride
[8] = dose 0.16 millimoles (μM)/kg [sic]
[9] = dose 0.08 (millimoles (μM)/kg [sic])
[10] = dose 0.324 millimoles (μM)/kg [sic]
[11] = dose 0.005 (printed millimoles (μM)/kg)
[12] = dose 0.02 (printed millimoles (μM)/kg)

| SMILES | AA (% Inhib./μM/kg.) [1, 3] | AA (% Inhib./μM/kg.) [1, 5] | CE (% Inhib./μM/kg.) [2, 6] | CE (% Inhib./μM/kg.) [2, 7] | CE (% Inhib./μM/kg.) [2, 9] | CE (% Inhib./μM/kg.) [2, 10] | also measured |
| --- | --- | --- | --- | --- | --- | --- | --- |
| COc1ccc2cc(C(C)CN3CCCCC3CC3CCCCC3)ccc2c1.Cl (stereo not drawn) [1 (α-Isomer), 2-cyclohexylmethyl-1-[2-(6-methoxy-2-naphthyl)-2-methylethyl]piperidine hydrochloride] | 0% | 86% | 14% | 40% |  |  | AA (% Inhib./μM/kg.) [1, 4]: 8% |
| COc1ccc2cc(C(C)CN3CCCCC3CC3CCCCC3)ccc2c1.Cl (stereo not drawn) [1 (β-Isomer), 2-cyclohexylmethyl-1-[2-(6-methoxy-2-naphthyl)-2-methylethyl]piperidine hydrochloride] | 0% | 89% | 16% | 47% |  |  | AA (% Inhib./μM/kg.) [1, 4]: 12% |
| COc1ccc2cc(C(C)CN3CCCCC3CC3CCCCC3)ccc2c1.Cl (stereo not drawn) [1 (γ-Isomer), 2-cyclohexylmethyl-1-[2-(6-methoxy-2-naphthyl)-2-methylethyl]-piperidine hydrochloride] |  | 86% | 24% | 45% |  |  | AA (% Inhib./μM/kg.) ([1]; dose 0.018 (printed millimoles (μM)/kg)): 2%; AA (% Inhib./μM/kg.) ([1]; dose 0.053 (printed millimoles (μM)/kg)): 49% |
| COc1ccc2cc(C(C)CN3CCCCC3C3CCCCC3)ccc2c1 (stereo not drawn) [Example 2, 2-cyclohexyl-1-[2-(6-methoxy-2-naphthyl)-2-methylethyl-]piperidine hydrochloride] | 17% |  |  |  | 35% | 69% | AA (% Inhib./μM/kg.) ([1]; dose 0.04 millimoles (μM)/kg [sic]): 31%; AA (% Inhib./μM/kg.) [1, 8]: 61% |
| COc1ccc2cc(C(C)CN3CCCCC3CCC3CCCCC3)ccc2c1 (stereo not drawn) [Example 3, 2-(2-cyclohexylethyl)-1-[2-(6-methoxy-2-naphthyl)-2-methylethyl]-piperidinehydrochloride] |  |  |  |  | 66% | 52% | AA (% Inhib./μM/kg.) [1, 11]: 0%; AA (% Inhib./μM/kg.) [1, 12]: 40%; AA (% Inhib./μM/kg.) [1, 9]: 16% |
| COc1ccc2cc(C(C)CN3CCC(CCC4CCCCC4)CC3)ccc2c1 (stereo not drawn) [Example 4, 4-(2-cyclohexylethyl)-1-[2-(6-methoxy-2-naphthyl)-2-methylethyl]-piperidine] |  |  |  |  | 22% | 38% | AA (% Inhib./μM/kg.) [1, 11]: 0%; AA (% Inhib./μM/kg.) [1, 12]: 0%; AA (% Inhib./μM/kg.) [1, 9]: 34% |
| COc1ccc2cc(CCN3CCCCC3CC3CCCCC3)ccc2c1 (stereo not drawn) [Example 5, 2-cyclohexylmethyl-1-[2-(6-methoxy-2-naphthyl)ethyl]piperidine] |  |  |  |  | 29% | 68% | AA (% Inhib./μM/kg.) [1, 10]: 55% |
| CCN(CC)CCCC(C)NCC(C)c1ccc2cc(OC)ccc2c1 (stereo not drawn) [Example 6, N-[2-(6-methoxy-2-naphthyl)-2-methylethyl]-N-[5-(N',N'-diethyl-amino)-2-pentyl]amine] |  |  |  |  | 28% | 26% | AA (% Inhib./μM/kg.) [1, 8]: 73% |
